{"source": "ChEMBL document CHEMBL1201862", "about": "“PubChem BioAssay data set” (2004)", "key": {"P388": {"system": "P388", "assay": "cells", "type": "functional", "conditions": "Mus musculus"}, "P388/ADR": {"system": "P388/ADR", "assay": "cells", "type": "functional", "conditions": "Mus musculus, P388/ADR"}, "SN12K1": {"system": "SN12K1", "assay": "cells", "type": "functional", "conditions": "Homo sapiens"}, "[1]": {"assay": "Luminescence Cell-Based Dose Response HTS to Identify Activators of Luciferase Translation or Activity in H4 […] Cells. [Related pubchem assays: 1829 (Project Summary), 1814 (Primary HTS)]", "type": "functional"}, "[2]": {"molecular_target": "T1, Heat shock factor protein 1 (Mus musculus, UniProt P38532)", "T1 sequence (P38532 whole entry)": "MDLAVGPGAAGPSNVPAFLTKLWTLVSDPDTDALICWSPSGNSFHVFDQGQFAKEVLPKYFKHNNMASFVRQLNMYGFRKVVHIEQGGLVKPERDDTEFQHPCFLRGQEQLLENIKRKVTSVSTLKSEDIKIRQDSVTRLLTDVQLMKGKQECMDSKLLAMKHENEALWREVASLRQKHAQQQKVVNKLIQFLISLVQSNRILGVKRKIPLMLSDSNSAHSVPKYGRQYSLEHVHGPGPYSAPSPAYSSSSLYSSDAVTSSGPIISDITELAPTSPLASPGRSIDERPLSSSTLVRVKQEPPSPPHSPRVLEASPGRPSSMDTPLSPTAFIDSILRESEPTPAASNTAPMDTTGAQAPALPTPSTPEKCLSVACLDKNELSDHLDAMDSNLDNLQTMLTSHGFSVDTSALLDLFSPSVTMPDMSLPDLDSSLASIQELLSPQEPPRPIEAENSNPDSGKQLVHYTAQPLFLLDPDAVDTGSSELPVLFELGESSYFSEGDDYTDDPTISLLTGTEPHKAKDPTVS", "assay": "inhibition of MG132-induced HSE-luciferase signal, confirmation, cell-based, NIH3T3, luminescence, dose retest (AID 2382);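 further: NIH3T3 fibroblasts with HSF1-driven luciferase reporter stressed by proteasome inhibitor MG132; luminescence from HSF1-driven luciferase expression after 8 hours of MG132 stress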", "type": "functional"}, "[3]": {"assay": "Luminescence Cell-Based Dose Confirmation HTS to Identify Activators of 5'UTR Stem-Loop Driven Alpha-Synuclein mRNA Translation in H4 Neuroglioblastoma Cells. [Related pubchem assays: 1829 (Project Summary), 1814 (Primary HTS)]", "type": "functional"}, "[4]": {"molecular_target": "Dual specificity tyrosine-phosphorylation-regulated kinase 1A (Rattus norvegicus, UniProt Q63470)", "type": "biochemical, Homo sapiens"}, "H4": {"system": "H4", "assay": "Luminescence Cell-Based Dose Response HTS to Identify Activators of 5'UTR Stem-Loop Driven Prion Protein mRNA Translation in H4 Neuroglioblastoma Cells. [Related pubchem assays: 1829 (Project Summary), 1814 (Primary HTS)]", "type": "functional", "conditions": "Homo sapiens"}, "[5]": {"molecular_target": "T2, Carboxy-terminal domain RNA polymerase II polypeptide A small phosphatase 1 (Homo sapiens, UniProt Q9GZU7)", "T2 sequence (Q9GZU7 whole entry)": "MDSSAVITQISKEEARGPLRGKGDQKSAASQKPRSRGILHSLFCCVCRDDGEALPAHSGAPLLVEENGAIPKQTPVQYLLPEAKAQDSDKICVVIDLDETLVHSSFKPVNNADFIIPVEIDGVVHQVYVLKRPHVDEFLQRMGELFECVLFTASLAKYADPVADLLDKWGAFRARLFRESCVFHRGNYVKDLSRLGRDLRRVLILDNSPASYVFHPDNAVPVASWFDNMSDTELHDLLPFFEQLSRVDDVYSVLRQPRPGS", "assay": "inhibitors of CTDSP1, concentration-response testing, biochemical assay, absorbance-based, actives from ultra-high-throughput screening (AID 540297)", "type": "functional"}, "Cysteine protease ATG4B": {"molecular_target": "T3, Cysteine protease ATG4B (Homo sapiens, UniProt Q9Y4P1)", "T3 sequence (Q9Y4P1 whole entry)": "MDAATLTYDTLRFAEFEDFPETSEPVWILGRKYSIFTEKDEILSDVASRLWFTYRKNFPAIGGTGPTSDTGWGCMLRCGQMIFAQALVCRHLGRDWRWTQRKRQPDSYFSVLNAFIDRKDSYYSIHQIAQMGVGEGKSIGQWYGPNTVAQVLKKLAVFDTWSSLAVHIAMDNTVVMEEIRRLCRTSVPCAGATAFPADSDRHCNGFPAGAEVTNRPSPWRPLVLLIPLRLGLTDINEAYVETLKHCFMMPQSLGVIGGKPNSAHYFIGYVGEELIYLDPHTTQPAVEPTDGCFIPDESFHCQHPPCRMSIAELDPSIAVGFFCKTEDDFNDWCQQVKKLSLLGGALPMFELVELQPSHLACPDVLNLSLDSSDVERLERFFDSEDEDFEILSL", "type": "functional"}, "Leucine aminopeptidase": {"molecular_target": "T4, Leucine aminopeptidase (Plasmodium falciparum 3D7, UniProt Q8IL11)", "T4 sequence (Q8IL11 whole entry)": "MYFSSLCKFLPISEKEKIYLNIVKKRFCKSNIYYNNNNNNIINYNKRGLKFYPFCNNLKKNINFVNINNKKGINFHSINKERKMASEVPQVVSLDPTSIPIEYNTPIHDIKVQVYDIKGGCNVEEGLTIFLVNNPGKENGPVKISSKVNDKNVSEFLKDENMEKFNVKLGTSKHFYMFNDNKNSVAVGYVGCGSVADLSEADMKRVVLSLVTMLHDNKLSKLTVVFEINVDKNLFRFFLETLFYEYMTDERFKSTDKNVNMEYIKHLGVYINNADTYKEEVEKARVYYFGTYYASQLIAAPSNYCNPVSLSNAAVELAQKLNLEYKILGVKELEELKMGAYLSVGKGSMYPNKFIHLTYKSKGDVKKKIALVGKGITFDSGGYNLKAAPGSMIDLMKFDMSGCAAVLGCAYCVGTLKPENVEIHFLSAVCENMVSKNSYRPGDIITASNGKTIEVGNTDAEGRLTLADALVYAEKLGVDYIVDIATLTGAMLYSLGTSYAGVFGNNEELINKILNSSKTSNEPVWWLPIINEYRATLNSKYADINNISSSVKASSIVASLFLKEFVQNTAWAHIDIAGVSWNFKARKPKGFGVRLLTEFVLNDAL", "assay": "P. falciparum M17LAP inhibitors, primary screen, biochemical, fluorogenic H-Leu-NHMec substrate, 1536-well (AID 1619)", "type": "functional"}, "Phospholipase A2": {"molecular_target": "Phospholipase A2 (Homo sapiens, UniProt P04054)", "sequence (P04054 whole entry)": "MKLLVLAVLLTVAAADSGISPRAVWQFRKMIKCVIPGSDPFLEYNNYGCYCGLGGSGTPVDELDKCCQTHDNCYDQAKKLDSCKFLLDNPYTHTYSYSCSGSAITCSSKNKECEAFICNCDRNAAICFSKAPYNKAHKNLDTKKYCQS", "type": "functional"}, "[6]": {"assay": "HepG2 cell cytotoxicity, dose response, cytotoxicity control for Shn3 inhibitor project, CellTiter-Glo, cherry-picked (AID 624134)", "type": "functional, cell-based"}, "[7]": {"assay": "control 3'UTR Renilla luciferase suppression, dose response, counter-screen for Shn3 inhibitor project, cell-based, Clone20-Shn3RL, cherry-picked (AID 624133)", "type": "functional"}, "[8]": {"assay": "Shn3 3'UTR reporter inhibitors, dose response, cell-based, Clone20 osteoblasts, firefly luciferase, cherry-picked (AID 624132)", "type": "functional"}}, "note": "Active and inactive are the calls of the source."}
{"smiles": "O=[N+]([O-])c1cc(C(F)(F)F)cc2c1SC1=Nc3ccccc3CN12", "values": [{"measurement": "GI50", "setting": "P388", "result": "> 100 µM (inactive)"}, {"measurement": "GI50", "setting": "P388/ADR", "result": "> 100 µM (inactive)"}, {"measurement": "GI50", "setting": "SN12K1", "result": "> 100 µM (inactive)"}]}
{"smiles": "N/C(=N/O)N/N=C\\c1cc(Cl)cc(Cl)c1O", "values": [{"measurement": "GI50", "setting": "P388", "result": "0.0182 µM (active)"}, {"measurement": "GI50", "setting": "P388/ADR", "result": "0.998 µM (active)"}, {"measurement": "GI50", "setting": "SN12K1", "result": "0.366 µM (active)"}]}
{"smiles": "Cc1ccc(N2CN=c3s/c(=C\\c4ccccn4)c(=O)n3C2)cc1", "values": [{"measurement": "EC50", "setting": "[1]", "result": "29.5 µM (active)"}, {"measurement": "EC50", "setting": "[2]", "result": "> 195 µM (not active)"}, {"measurement": "EC50", "setting": "[3]", "result": "> 120 µM (not active)"}, {"measurement": "AC50", "setting": "[4]", "result": "3.58 µM (active)"}, {"measurement": "EC50", "setting": "H4", "result": "> 120 µM (not active)"}]}
{"smiles": "O=C(O)COc1ccccc1/C=C1\\SC(=S)N(/N=C/c2ccccc2O)C1=O", "values": [{"measurement": "IC50", "setting": "[5]", "result": "8.53 µM (active)"}, {"measurement": "IC50", "setting": "Cysteine protease ATG4B", "result": "27.1 µM (inactive)"}, {"measurement": "IC50", "setting": "Leucine aminopeptidase", "result": "21.3 µM (active)"}, {"measurement": "IC50", "setting": "Phospholipase A2", "result": "32.1 µM (inactive)"}]}
{"smiles": "N/C(=N\\O)N/N=C/c1ccc2c(c1)OCCO2", "values": [{"measurement": "GI50", "setting": "P388", "result": "13.1 µM (inactive)"}, {"measurement": "GI50", "setting": "P388/ADR", "result": "12.8 µM (inactive)"}, {"measurement": "GI50", "setting": "SN12K1", "result": "2.88 µM (inactive)"}]}
{"smiles": "Cc1n[nH]c2ccc(-c3cncc(OC[C@@H](N)Cc4c[nH]c5ccccc45)c3)cc12", "note": "[A-443654]", "values": [{"measurement": "AC50", "setting": "[6]", "result": "7.4 µM (active)"}, {"measurement": "AC50", "setting": "[7]", "result": "2.85 µM (active)"}, {"measurement": "AC50", "setting": "[8]", "result": "1.77 µM (active)"}]}
